29 molecules from patent publication US8088806B2 (Achillion Pharmaceuticals, Inc., priority 2005, dated 2012) can be followed below.

The subject of the first test is HCV replicon. Description: Replicon based assay of HCV replication inhibition (NPT ELISA). Conditions: Hepatitis C virus, Huh-7, 72 h, Table I; Huh-7 HCV replicon-containing cells, three days; read-out: Activity. Format: cell-based, Hepatitis C virus. The method, then: Compounds claimed herein are tested for the ability to inhibit viral replication of the Hepatitis C replicon in cultured cells in which the HCV replicon construct has been incorporated. The HCV replicon system was described by Bartenschlager, et. al (Science, 285, pp. 110-113 (1999)). The replicon system is predictive of in vivo anti-HCV activity; compounds that are active in humans uniformly evidence activity in the replicon assay.
In this assay HCV replicon containing cells are treated with different concentrations of the test compound to ascertain the ability of the test compound to suppress replication of the HCV replicon. As a positive control, HCV replicon-containing cells are treated with different concentrations of interferon alpha, a known inhibitor of HCV replication. The replicon assay system includes Neomycin Phosphotransferase (NPT) as a component of the replicon itself in order to detect the transcription of replicon gene products in the host cell. Cells in which the HCV replicon is actively replicating have high levels of NPT; the level of NPT is proportional to HCV replication. […] The NPT level of each sample is measured using a captured ELISA.
A protocol for testing compounds for the ability to inhibit viral replication of the Hepatitis C replicon cultured cells in which the replicon construct has been incorporated, follows.
The HCV replicon contains, 5′-3′, the HCV-IRES, the neomycin phosphotransferase (neo) gene, the IRES of encephalomyocarditis virus, which directs translation of HCV sequences NS3 to NS5B, and the 3′-NTR. The sequence of the HCV replicon has been deposited in GenBank (Accession no. AJ242652).
The replicon is transfected into Huh-7 cells using standard methods such as electroporation.
The equipment and materials include, but are not limited to, Huh-7 HCV replicon-containing cells, maintenance media (DMEM (Dulbecco's modified Eagle media) supplemented with 10% FBS, L-glutamine, non-essential amino acids, penicillin (100 units/ml), streptomycin (100 micrograms/ml), and 500 micrograms/ml of Geneticin (G418), screening media (DMEM supplemented with 10% FBS, L-glutamine, non-essential amino acids, penicillin (100 units/ml) and streptomycin (100 micrograms/ml)), 96 well tissue culture plates (flat bottom), 96 well plates (U bottom for drug dilution), Interferon alpha for positive control, fixation reagent (such as methanol: acetone), primary antibody (rabbit anti-NPTII), secondary antibody: Eu-N1l, and enhancement solution.
The cells are then seeded onto 96-well plates at a density of 6000-7500 cells/100 microliters/well (6-7.5×10^5 cells/10 ml/plate). The plates are then incubated at 37° C. in a 5% CO2 incubator.
HCV replicon-containing cells are rinsed with once PBS once; 2 mls of trypsin are then added. Cells are incubated at 37° C. in a 5% CO2 incubator for 3-5 minutes. 10 mls of complete medium is added to stop the reaction. Cells are blown gently, put into a 15 ml tube, and spun at 1200 rpm for four minutes. The trypsin/medium solution is removed and 5 mls of medium (500 ml DMEM (high glucose)) from BRL catalog #12430-054; 50 mls 10% FBS, 5% Geneticin G418 (50 mg/ml, BRL catalog #10131-035), 5 ml MEM non-essential amino acids (100×BRL #11140-050) and 5 ml pen-strep (BRL # 15140-148) is added. The cells and media are mixed carefully
Cells are plated with screening medium (500 ml DMEM (BRL #21063-029), 50 ml FBS (BRL #10082-147) and 5 ml MEM non-essential amino acid (BRL #11140-050) at 6000-7500 cells/100 μl/well of 96 well plate (6-7.5×10^5 cells/10 ml/plate). Plates are placed into 37° C. 5% CO2 incubator overnight.
The following morning, drugs (test compounds or interferon alpha) are diluted in 96 well U bottom plates with media or DMSO/media, depending on the final concentration chosen for screening. Generally for 6 concentrations of each test compounds ranging from 10 micromolar to 0.03 micromolar are applied. […]
On to `COc1cccc2sc(Nc3nc(-c4cccnc4)cs3)nc12` [compound 207, 4-methoxy-N-(4-(pyridin-3-yl)thiazol-2-yl)benzo[d]thiazol-2-amine], for which the EC50 is 1 to 10 µM.

Consider `CC(=O)c1cccc(Nc2nc(-c3c(C)nc4cc(C)ccn34)cs2)c1` [compound 167, 1-(3-(4-(2,7-dimethylH-imidazo[1,2-a]pyridin-3-yl)thiazol-2-ylamino)phenyl)ethanone], for which the EC50 is more than 10 µM.

Turning to `CCCCCOc1ccc(Nc2nc(CN3CCN(C)CC3)cs2)cc1C(F)(F)F` [compound 217, N-(3-(trifluoromethyl)-4-(pentyloxy)phenyl)-4-((4-methylpiperazin-1-yl)methyl)thiazol-2-amine], the EC50 is less than 1 µM.

As to `CCCCCOc1ccc(Nc2nc(-c3ccc(O)c(C(N)=O)c3)cs2)cc1C(F)(F)F` [compound 131, 5-(2-(3-(trifluoromethyl)-4-(pentyloxy)phenylamino)thiazol-4-yl)-2-hydroxybenzamide], the EC50 was less than 1 µM.

In the case of `N#Cc1cccc(Nc2nc(-c3ccc(Cl)c(Cl)c3)cs2)c1` [compound 56, 3-(4-(3,4-dichlorophenyl)thiazol-2-ylamino)benzonitrile], the EC50 was more than 10 µM.

Still in this test, the particulars now being: Hepatitis C virus, Huh-7, 72 h, Table III; Huh-7 HCV replicon-containing cells, three days; read-out: Activity.
In the case of `CCCCCCCCN(C)c1ccc(Nc2nc(-c3ccc(O)c(O)c3)cs2)cc1C(F)(F)F` [compound 571, 4-(2-(4-(N-methyl-N-octylamino)-3-(trifluoromethyl)phenylamino)thiazol-4-yl)benzene-1,2-diol], the EC50 was less than 1 µM.

In the case of `CCCCCOc1ccc(Nc2nc(/C=C/c3cccc(Cl)c3)cs2)cc1C(F)(F)F` [compound 542, 4-(3-chlorostyryl)-N-(3-(trifluoromethyl)-4-(pentyloxy)phenyl)thiazol-2-amine], the EC50 was less than 1 µM.

Regarding `CCCCCCCCOc1ccc(Nc2nc(Cc3ccc(OC)cc3)cs2)cc1` [compound 640, 4-(4-methoxybenzyl)-N-(4-(octyloxy)phenyl)thiazol-2-amine], the EC50 was more than 10 µM.

For the molecule `CCCCCCCCOc1ccc(Nc2nc(-c3ccc(NC(C)=O)nc3)cs2)cc1C(F)(F)F` [compound 678, N-(5-(2-(3-(trifluoromethyl)-4-(octyloxy)phenylamino)thiazol-4-yl)pyridin-2-yl)acetamide], the EC50 is less than 1 µM.

The test is the same for the next values; noted with them: Hepatitis C virus, replicon based assay of HCV replication inhibition; Table II; read-out: Activity.
`CCCCCN(C)c1ccc(Nc2nc(-c3cccnc3)cs2)cc1C(F)(F)F` [compound 379, N^1-methyl-N^1-pentyl-N^4-(4-(pyridin-3-yl)thiazol-2-yl)-2-(trifluoromethyl)benzene-1,4-diamine]: the EC50 was less than 1 µM.

As to `CC(C)COc1ccc(Nc2nc(-c3ccc4c(c3)NC(=O)CO4)cs2)cc1C(F)(F)F` [compound 252, 6-(2-(4-isobutoxy-3-(trifluoromethyl)phenyl-amino)thiazol-4-yl)-2H-benzo[b][1,4]oxazin-3(4H)-one], the EC50 was less than 1 µM.

As for `O=C1COc2ccc(-c3csc(Nc4ccc(OCC5CC5)c(C(F)(F)F)c4)n3)cc2N1` [compound 253, 6-(2-(4-(cyclopropylmethoxy)-3-(trifluoromthyl)phenyl-amino)thiazol-4-yl)-2H-benzo[b][1,4]oxazin-3(4H)-one], the EC50 was in the range of 1 to 10 µM.

As to `CCCCCOc1ccc(Nc2nc(C3CCCN3C(=O)C(F)(F)F)cs2)cc1C(F)(F)F` (centres unmarked) [compound 226, 2,2,2-trifluoro-1-(2-(2-(4-(pentyloxy)-3(trifluoromethyl)phenyl-amino)thiazol-4-yl)pyrrolidin-1-yl)ethanone], the EC50 was 1 to 10 µM.

Take `CCCCCCCCOc1ccc(Nc2nc(-c3ccc4[nH]c(=O)oc4c3)cs2)cc1` [compound 383, 6-(2-(4-(octyloxy)phenylamino)thia-zol-4-yl)benzo[d]oxazol-2(3H)-one]: the EC50 is less than 1 µM.

Regarding `CC/C=C\CCCCOc1ccc(Nc2nc(-c3cccnc3)cs2)cc1C(F)(F)F` [compound 480, N-(4-((Z)-oct-5-enyloxy)-3-(trifluoromethyl)phenyl)-4-(pyridin-3-yl)thiazol-2-amine], the EC50 was less than 1 µM.

With `COc1ccc(Oc2ccccc2)cc1Nc1nc(-c2cccnc2)cs1` [compound 300, N-(2-methoxy-5-phenoxyphenyl)-4-(pyridin-3-yl)thiazol-2-amine], the EC50 was 1 to 10 µM.

`CCCCCOc1ccc(Nc2nc(CN3CCC(O)CC3)cs2)cc1C(F)(F)F` [compound 272, 1-((2-(4-(pentyloxy)-3-(trifluoromethyl)phenyl-amino)thiazol-4-yl)methyl)piperidin-4-ol]: the EC50 is less than 1 µM.

For `CCCCCCCCOc1ccc(Nc2nc(-c3ccc(NC)nc3)cs2)cc1` [compound 463, 5-(2-(4-(octyloxy)phenylamino)thia-zol-4-yl)-N-meethylpyridin-2-amine], the EC50 was less than 1 µM.

In the case of `CCCCCCCc1ccc(Nc2nc(Cc3ccccc3)cs2)cc1` [compound 515, 4-benzyl-N-(4-heptylphenyl)thiazol-2-amine], the EC50 is more than 10 µM.

Take `CCCCCCCOc1ccc(Nc2nc(-c3cccc(O)c3)cs2)cc1` [compound 435, 3-(2-(4-(heptyloxy)phenylamino)thia-zol-4-yl)phenol]: the EC50 is less than 1 µM.

Consider `CCCCCOc1ccc(Nc2nc(-c3ccc(Br)cc3)cs2)cc1C(F)(F)F` [compound 406, 4-(4-bromophenyl)-N-(3-(trifluoromethyl)-4-(pentyloxy)phenyl)thiazol-2-amine], for which the EC50 was less than 1 µM.

Staying with this test, now noted: Hepatitis C virus, replicon based assay of HCV replication inhibition; Table IV; read-out: Activity.
With `COc1cc(Nc2nc(-c3cccnc3)cs2)cc(OC)c1` [compound 901, N-(3,5-dimethoxyphenyl)-4-(pyridin-3-yl)thiazol-2-amine], the EC50 is 1 to 10 µM.

On to `N#Cc1cncc(-c2csc(Nc3ccc(OCC4CCCCC4)c(F)c3)n2)c1` [compound 728, 5-(2-(4-(cyclohexylmethoxy)-3-fluorophenylamino)thiazol-4-yl)pyridine-3-carbonitrile], for which the EC50 is less than 1 µM.

With `NC(=O)c1cccc(Nc2nc(-c3cccnc3)cs2)c1` [compound 876, 3-(4-(pyridin-3-yl)thiazol-2-ylamino)benzamide], the EC50 was more than 10 µM.

Take `Cc1ccnc(-c2csc(Nc3ccc(OCC4CCCCC4)c(C(F)(F)F)c3)n2)c1` [compound 768, N-(4-(cyclohexylmethoxy)-3-(trifluoromethyl)phenyl)-4-(4-methylpyridin-2-yl)thiazol-2-amine]: the EC50 was less than 1 µM.

Take `CCCCCCCCOc1ccc(Nc2nc(-c3c[nH]nc3C#N)cs2)cc1C(F)(F)F` [compound 809, 4-(2-(3-(trifluoromethyl)-4-(octyloxy)phenylamino)thiazol-4-yl)-1H-pyrazole-3-carbonitrile]: the EC50 was less than 1 µM.

For the molecule `c1cncc(-c2csc(Nc3ccc4c(c3)OCO4)n2)c1` [compound 740, N-(benzo[d][1,3]dioxol-6-yl)-4-(pyridin-3-yl)thiazol-2-amine], the EC50 was more than 10 µM.

In the case of `CCCCCOc1ccc2nc(NC(=O)c3cccnc3)sc2c1` [compound 832, N-(6-(pentyloxy)benzo[d]thiazol-2-yl)nicotinamide], the EC50 is more than 10 µM.

On to `CCOC(=O)c1csc(-c2csc(Nc3ccc(OCC4CCCCC4)c(C(F)(F)F)c3)n2)n1` [compound 769, ethyl 2-(2-(4-(cyclohexylmethoxy)-3-(trifluoromethyl)phenylamino)thiazole-4-yl)thiazole-4-carboxylate], for which the EC50 is less than 1 µM.
